Non-standard residues stand in square brackets, D forms with d. Residues, ends and D or L forms follow the SMILES beside them. ξ: configuration not given here. *: point of attachment. Phenylacetyl(2,3,4,5,6-F5) = O=C(Cc1c(F)c(F)c(F)c(F)c1F)*; Phenylacetyl(4-F) = O=C(Cc1ccc(F)cc1)*; Hydrocinnamoyl = O=C(CCc1ccccc1)*; Ile(3ξ) = CCC(C)[C@H](N)C(=O)O; PhAc = O=C(Cc1ccccc1)*; Bz = O=C(c1ccccc1)*
How the values were obtained:
[1] = Phase inversion temperature (Tgel-sol) test of hydrogels; format: physicochemical; details: heated 2° C./min until hydrogel began to flow
Protocol: Hydrogels (A) to (R) were obliquely placed in water bath while a beaker including water and a thermometer was also placed in the water bath. The hydrogels were heated (2° C./min) until such hydrogels began to flow (the gel phase was changed to the sol phase). The inversion temperatures when the hydrogels began to flow were recorded, and such temperatures were the phase inversion temperatures of hydrogels.

[2] = Rheological test of hydrogels (angular frequency sweep); format: physicochemical; details: angular frequency sweep 0.1 to 100 rad/s, strain=0.8%, 25° C.
Protocol: In the present invention, Rheological test was performed by Anton Paar rheometer. MTT cell viability assay was performed by Sunrise absorbance microplate reader (DV990/BV4 GDV Programmable MPT reader).
Rheological tests of hydrogels were performed by Anton Paar rheometer. 25 mm parallel plate was used in the experimentation. 400 μL of hydrogels (A) to (R) were placed on the parallel plate. Angular frequency sweep test: measurement range (frequency 0.1 to 100 rad/s, strain=0.8%) is 13 points per 10 rounds. Sweep model is “logarithm (log)” and the operation temperature is 25° C.
In FIG. 3, G′ represents storage modulus, and G″ represents loss modulus. The higher G′ and G″ are, the better stability the hydrogel is.

[3] = State of hydrogels at 37° C. and 4° C. (TEM images); format: physicochemical
Protocol: The material, technique and general process in the present invention are suitable for the following examples. All used chemical reagents and solutions can be obtained from suppliers. ^1H and ^13C spectrums were measured by Bruker DRX-300. LC-MS was measured by MICROMASS Q-Tof. TEM was measured by Hitachi HT7700 Bio-transmission electron microscope.

Hela cell [4] = experiment: Wound healing assay, Hela cell; format: cell-based; details: medium with 1 wt % of hydrogel
Protocol: Various cells were washed with PBS (phosphate buffer) twice and were suspended in a T-75 tissue culture flask. 0.25% trypsin containing 0.1% EDTA was added and then the cells were re-suspended in 5 mL of complete medium. 30000 cells (in 3 mL of medium) were placed in each vial on a 6-well plate to form a fusion monolayer. […] 2 mL of PBS was used twice to remove the floating cells, and was then replaced with 3 mL of complete medium. The image taken at 0 hour was used as a reference point. […] The images at different hours were taken at an appropriate region. Control: no compound added.

[5] = MTT cell viability assay, Hela cell; format: cell-based; details: human, HeLa cells, hydrogel up to 500 μM
Protocol: (§1) The bio-compatibility of the hydrogels prepared from the different peptide materials was measured by MTT cell viability assay.
(§2) MTT cell viability assay was performed by Sunrise absorbance microplate reader (DV990/BV4 GDV Programmable MPT reader). Various cells were seeded in a 24-well plate containing 0.5 mL medium (DMEM) with 10% fetal bovine serum (FBS) and 1% penicillin. In each well, the cell concentration was 50000 cells and cells were cultured for 24 hours. After seeding the cells, hydrogels with the different concentrations ([…]) were added. The medium in each well was replaced with the flesh medium containing 0.5 mL of MTT reagent (4 mg mL^−1) after 24 and 48 hours. After an additional 4 hours, the medium containing MTT reagent was removed and DMSO (0.5 mL/well) was added to dissolve formazan crystals. The cells in the 24-well plate were transferred to a 96-well plate. The optical densities of such obtained solutions were measured at 595 nm by Sunrise absorbance microplate reader (DV990/BV4 GDV Programmable MPT reader).
(§3) The untreated cells were used as a comparative example. The cell viability was calculated based on the following equation:
(§4) Cell viability(%)=ODsample/ODcomparative example

Hela cell [6] = experiment: MTT cell viability assay, Hela cell; format: cell-based; details: Homo sapiens, read-out: IC50 inhibition concentration
Protocol: as §1, §2, §3, §4

CTX TNA2 cell [7] = experiment: MTT cell viability assay, CTX TNA2 cell; format: cell-based; details: read-out: IC50 inhibition concentration
Protocol: as §1, §2, §3, §4

[8] = MTT cell viability assay, CTX TNA2 cell; format: cell-based; details: rat, CTX TNA2 cells, hydrogel up to 500 μM
Protocol: as §1, §2, §3, §4

CTX TNA2 cell [9] = experiment: Wound healing assay, CTX TNA2 cell; format: cell-based; details: medium with 1 wt % of hydrogel, versus Control
Protocol: Various cells were washed with PBS (phosphate buffer) twice and were suspended in a T-75 tissue culture flask. 0.25% trypsin containing 0.1% EDTA was added and then the cells were re-suspended in 5 mL of complete medium. 30000 cells (in 3 mL of medium) were placed in each vial on a 6-well plate to form a fusion monolayer. After the adhesion for 24 hours, the cell monolayer was scratched by a p200 pipet tip to create a wound. 2 mL of PBS was used twice to remove the floating cells, and was then replaced with 3 mL of complete medium. The image taken at 0 hour was used as a reference point. The medium was replaced with 3 mL of medium containing 1 wt % of hydrogel and the plate was incubated at 37° C. and 5% CO2 for 24 hours. The images at different hours were taken at an appropriate region. Control: no compound added.

MCF-7 cell = experiment: MTT cell viability assay, MCF-7 cell; format: cell-based; details: Homo sapiens, MCF7, read-out: IC50 inhibition concentration
Protocol: as §1, §2, §3, §4

[10] = MTT cell viability assay, MCF-7 cell; format: cell-based; details: human, MCF-7 cells, hydrogel up to 500 μM
Protocol: as §1, §2, §3, §4

| Compound | phase inversion temperature Tgel-sol [1] [°C] | storage modulus (G′) [2] | further results |
| --- | --- | --- | --- |
| CC(C)C[C@H](NC(=O)Cc1c(F)c(F)c(F)c(F)c1F)C(=O)N[C@@H](Cc1ccccc1)C(=O)O [hydrogel (I), PFB-Leu-Phe] | 55 | 2×10^3 Pa | state of hydrogel at 4° C. [3]: liquid; state of hydrogel at 37° C. [3]: colloidal state |
| O=C(Cc1c(F)c(F)c(F)c(F)c1F)N[C@@H](Cc1ccccc1)C(=O)O [hydrogel (A), PFB-Phe] | 56 | 2×10^3 Pa | wound healing after 48 hours (Hela cell [4]): healed completely |
| CCC(C)[C@H](NC(=O)Cc1ccc(F)cc1)C(=O)N[C@@H](CCCCN)C(=O)N[C@H](C(=O)N[C@@H](C)C(=O)N[C@H](C(=O)O)C(C)C)C(C)C (stereo partly drawn) [hydrogel (N), 4-Fluorophenylacetic Acid-Ile-Lys-Val-Ala-Val] ({Phenylacetyl(4-F)}-[Ile(3ξ)]KVAV-OH) | 66 | 1×10^4 Pa | – |
| CCC(C)[C@H](NC(=O)[C@H](Cc1ccccc1)NC(=O)Cc1c(F)c(F)c(F)c(F)c1F)C(=O)N[C@@H](CCCCN)C(=O)N[C@H](C(=O)N[C@@H](C)C(=O)N[C@H](C(=O)O)C(C)C)C(C)C (stereo partly drawn) [hydrogel (R), PFB-Phe-Ile-Lys-Val-Ala-Val] ({Phenylacetyl(2,3,4,5,6-F5)}-F[Ile(3ξ)]KVAV-OH) | 40 | 1.0×10^3 Pa | – |
| CC(C)[C@H](NC(=O)Cc1c(F)c(F)c(F)c(F)c1F)C(=O)N[C@@H](Cc1ccccc1)C(=O)O [hydrogel (G), PFB-Val-Phe] | 72 | 6×10^4 Pa | – |
| CC(C)C[C@@H](NC(=O)Cc1c(F)c(F)c(F)c(F)c1F)C(=O)N[C@H](Cc1ccccc1)C(=O)O [hydrogel (J), PFB-D-L-D-F] | 69 | 7×10^2 Pa | – |
| CC(C)[C@H](NC(=O)[C@H](Cc1ccccc1)NC(=O)Cc1c(F)c(F)c(F)c(F)c1F)C(=O)O [hydrogel (F), PFB-Phe-Val] | 46 | 3×10^3 Pa | wound healing after 48 hours (Hela cell [4]): healed completely |
| CCC(C)[C@H](NC(=O)Cc1c(F)c(F)c(F)c(F)c1F)C(=O)N[C@@H](Cc1ccccc1)C(=O)O (stereo partly shown) [hydrogel (H), PFB-Ile-Phe] | 71 | 1×10^4 Pa | – |
| O=C(O)CNC(=O)[C@H](Cc1ccccc1)NC(=O)Cc1c(F)c(F)c(F)c(F)c1F [hydrogel (B), PFB-Phe-Gly] | 48 | 10^4 Pa | wound healing after 48 hours (Hela cell [4]): healed completely |
| O=C(Cc1c(F)c(F)c(F)c(F)c1F)N[C@@H](Cc1ccccc1)C(=O)N[C@@H](Cc1ccccc1)C(=O)O [hydrogel (D), PFB-Phe-Phe] | 45 | 2×10^4 Pa | – |
| CCC(C)[C@H](NC(=O)CCc1ccccc1)C(=O)N[C@@H](CCCCN)C(=O)N[C@H](C(=O)N[C@@H](C)C(=O)N[C@H](C(=O)O)C(C)C)C(C)C (stereo partly drawn) [hydrogel (Q), 3-Phenylpropionic Acid-Ile-Lys-Val-Ala-Val] (Hydrocinnamoyl-[Ile(3ξ)]KVAV-OH) | > 90 | 1×10^4 Pa | – |
| C[C@H](NC(=O)[C@H](Cc1ccccc1)NC(=O)Cc1c(F)c(F)c(F)c(F)c1F)C(=O)O [hydrogel (E), PFB-Phe-Ala] | 48 | 4×10^3 Pa | wound healing after 48 hours (Hela cell [4]): healed completely |
| CCC(C)[C@H](NC(=O)c1ccccc1)C(=O)N[C@@H](CCCCN)C(=O)N[C@H](C(=O)N[C@@H](C)C(=O)N[C@H](C(=O)O)C(C)C)C(C)C (stereo partly drawn) [hydrogel (O), Benzoic Acid-Ile-Lys-Val-Ala-Val] (Bz-[Ile(3ξ)]KVAV-OH) | 62 | 6×10^3 Pa | – |
| CCC(C)[C@H](NC(=O)Cc1ccccc1)C(=O)N[C@@H](CCCCN)C(=O)N[C@H](C(=O)N[C@@H](C)C(=O)N[C@H](C(=O)O)C(C)C)C(C)C (stereo partly drawn) [hydrogel (P), Phenylacetic Acid-Ile-Lys-Val-Ala-Val] (PhAc-[Ile(3ξ)]KVAV-OH) | 65 | 6×10^3 Pa | – |
| CCC(C)[C@H](NC(=O)Cc1c(F)c(F)c(F)c(F)c1F)C(=O)N[C@@H](CCCCN)C(=O)N[C@H](C(=O)N[C@@H](C)C(=O)N[C@H](C(=O)O)C(C)C)C(C)C (stereo partly drawn) [hydrogel (M), PFB-Ile-Lys-Val-Ala-Val] ({Phenylacetyl(2,3,4,5,6-F5)}-[Ile(3ξ)]KVAV-OH) | 42 | 1×10^3 Pa | – |
| O=C(Cc1c(F)c(F)c(F)c(F)c1F)NCC(=O)N[C@@H](Cc1ccccc1)C(=O)N[C@@H](Cc1ccccc1)C(=O)O [hydrogel (L), PFB-Gly-Phe-Phe] | 38 | 4×10^2 Pa | state of hydrogel at 4° C. [3]: liquid; state of hydrogel at 37° C. [3]: colloidal state |
| O=C(Cc1ccc(F)cc1)N[C@@H](Cc1ccccc1)C(=O)N[C@@H](Cc1ccccc1)C(=O)O [hydrogel (K), 4-Fluorobenzyl-Phe-Phe] | 46 | 6×10^3 Pa | – |
| O=C(Cc1c(F)c(F)c(F)c(F)c1F)N[C@@H](Cc1ccc(O)cc1)C(=O)N[C@@H](Cc1ccccc1)C(=O)O [hydrogel (C), PFB-Tyr-Phe] | 43 | 5×10^3 Pa | viability [5]: ~100%; IC50 (Hela cell [6]): > 500 µM; IC50 (CTX TNA2 cell [7]): > 500 µM; viability [8]: ~100%; wound healing after 48 hours (Hela cell [4]): healed completely; healing effect (CTX TNA2 cell [9]): better than that of Control; IC50 (MCF-7 cell): > 500 µM; viability [10]: ~100% |

Source: US20160009763A1, “PEPTIDE MOLECULAR MATERIALS” (National Chiao Tung University, priority 2014, published 2016)
